One series has as its system adult, female mosquitoes. Kind of series: Topical application on adult female mosquitoes (24-h mortality, 1-h knockdown). It is filed as in vivo, mosquito.
The test system of the next series is corn seeds. Nature of the series: Seed treatment testing: survival/germination of treated corn seeds (FIG. 2B). Particulars: seeds coated with compound; 1 week after introduction of larvae. The format is in vivo. The method, then:
(§1) Corn seeds used were a non-transgenic type strain of corn to prevent confounding results. Germination typically occurred between 2-4 days after moistening.
(§2) Seed coating was accomplished by placing 20 g of corn seeds or soybeans into a container with approximately 1 mL of a 1:5 Elmer's glue:water solution with a small amount of Triton-X100™ (present 100 μL/5 mL). For solid compounds, 0.25 g of compound was subsequently introduced into the container. This mixture of seeds, Elmer's Glue/water/Triton-X 100™ solution, and active compound was mixed thoroughly until seeds were coated with the active ingredient.
(§3) For each treatment, 0.25 g of liquid compound was dissolved in 5 mL of hexane. 0.25 g of Hi-Sil 233 silica gel was introduced into this mixture of hexane and active ingredient. The solvent was blown-off using a rotary evaporator, allowing for the compound to adsorb to the silica gel. This 0.5 g of silica gel:active ingredient was then used as the solid material used for coating the seeds. The seeds were then coated with the same method used for solid compound.
(§4) Three corn seeds coated in pogostone derivative treatments were germinated in small, 2-oz. […] Germination of seedlings was also recorded at the end of the assay by counting the total number of seeds that produced roots out of the 3 seeds in each container/replicate and recorded as total percentage germination. […]

Series [1] deals with adult female Aedes aegypti mosquitoes. Nature of the series: Formula 13 after pre-treatment with detoxification enzyme inhibitors (FIG. 10). The format is in vivo. The method, then:
Combinations of 2000 μg/mL Formula 13 and various detoxification enzyme inhibitors were applied to adult female mosquitoes in a volume of 0.2 μL to identify which detoxification pathway was most responsible for clearance of bioactive pogostone from the insect. A dose of 0.2 uL of either 1000 μg/mL of S,S,S-tributyl phosphorotrithioate (DEF) or 5000 μg/mL piperonyl butoxide (PBO) or 5000 μg/mL diethyl maleate (DEM) was applied 4 hours before a dose of 0.2 uL 2000 μg/mL of Formula 13 was applied to adult Aedes aegypti. […] The concentrations of inhibitors were chosen due to their inability to cause toxicity on their own at this application rate. The concentration of Formula 13 was chosen as the approximate LD25 of this compound against adult female Aedes aegypti mosquitoes. Combinations that caused statistically higher levels of mortality than pyrone 7 applied alone were considered informative. The goal of this exploration was to determine which processes might be most valuable in the detoxification of these derivatives.

Another series has as its system adult female mosquitoes. Nature of the series: whole plant or invertebrate. The note with it: topical. As for the experimental part:
The first group of DHAA-based derivatives that were tested included Formula A2, Formula B3, Formula C3, and Formula D3. A solution of 0.5% or 1.5% of each of these compounds was applied to the mosquitoes, as described above. […] Acetone was used as a control.

In the next series the test system is house flies. Kind of series: Spray-cup testing, house flies (FIG. 3a). Particulars: Formula 13 2.5% w/v in water vs thymol 2.5% or 10% w/v. It is filed as in vivo, house fly. The method, then:
10 adults of various arthropod species used for this characterization were placed into 8 oz. ice cream cups with tulle placed over the top to prevent the escape of arthropods from the container. Test formulations were added to spray bottles ([…]™) and applied at the same distance and spray number to eliminate variation between manufacturer spray bottles. For all experiments, spray bottles were set to mist in order to prevent excess formulation from accumulating in the cups. […] Mortality was recorded at 1 min, 5 min, 10 min, 15 min, 30 min, 4 hours, and 8 hours for each replicate. A minimum of 3 replicates of 10 arthropods/cup/replicate were performed for each formulation. Data was modeled using a logarithmic regression to show the speed-to-kill of each formulation and highlight differences among treatment groups. Different spray amounts were used for each arthropod, depending on susceptibility, e.g.:
House flies=8 sprays, 3 in […]

The test system of series [2] is Western corn rootworm larvae. Nature of the series: Seed treatment testing: rootworm survival (FIG. 2A). It is filed as in vivo. Particulars: seeds coated with compound; 1 week after introduction of larvae. As for the experimental part: as §1, §2, §3, §4
Series [3] has as its system Pyrethroid-resistant strain of Aedes aegypti (Puerto Rican strain). Nature of the series: Toxicity to insecticide-resistant mosquitoes (FIG. 1). The note with it: dose response curves FIG. 1.

“Also recorded” adds a separate entry of the source.

For the compound `CC(C)CCC(=O)c1c(O)c2ccccc2oc1=O` [Formula 13], the ED50 in the series on adult, female mosquitoes (topical, 1 h, read-out: KD50 (ug/g mosquito)) turned out to be 182 mg/kg. Also, the LD50 came out at 119 mg/kg with adult, female mosquitoes (topical, 24 h, read-out: LD50 (ug/g mosquito)) and 119 mg/kg with adult female mosquitoes (24 h, read-out: 24-hour Mortality LD50 (μg/g mosquito)). Further, the “insecticidal properties compared with natural pogostone, natural pyrethrins or terpenoids” value with adult, female mosquitoes (words, refers to Table 1) is “possessed better insecticidal properties than natural pogostone”. For the same compound, the “phytotoxicity to treated corn seeds” value in the series on corn seeds was “did not; also recorded: do not cause phytotoxicity”. The “toxicity of Formula 13 after DEF (inhibition of esterases)” value in series [1] (1000 μg/mL DEF 4 hours before 2000 μg/mL Formula 13, 0.2 uL each) was “significantly increased the toxicity of Formula 13”. The “toxicity of Formula 13 after DEM (decreasing glutathione S-transferase activity)” value in series [1] (5000 μg/mL DEM 4 hours before 2000 μg/mL Formula 13, 0.2 uL each) was “second-most important enzyme system”. Besides, in series [1] (5000 μg/mL PBO 4 hours before 2000 μg/mL Formula 13, 0.2 uL each), the “toxicity of Formula 13 after PBO (inhibition of monooxygenases)” value is “most significant for increasing the toxicity of Formula 13”. Also, in series [1] (0.2 uL applied topically to adult female Aedes aegypti), the “approximate LD25 (concentration applied)” value was around 2000 µg/mL. Also, the “1-hour Knockdown EC50 (μg/g mosquito)” value in the series on adult female mosquitoes (mosquito, 1 hour) was found to be 182 μg/g mosquito. Also, the “efficacy (mortality) compared with thymol” value with house flies is recorded as “outperformed thymol at all time points; also recorded: surpassed the efficacy of thymol at both an equal or higher concentration”. Also, the “western corn rootworm mortality” value in series [2] is given as “significant western corn rootworm mortality”. The “insecticidal capacity compared with natural pyrethrins” value in series [3] is listed as “outperformed natural pyrethrins”.

The values are drawn from patent US20200024246A1, “POGOSTONE DERIVATIVES AND METHODS OF USING THE SAME” (Hamyard Associates LLC, priority 2018, published 2020).
